From patent US6562789B2, “Histidine derivatives, preparation process, and their use as free antiradical agents” (L'Oreal S.A., priority 1996, dated 2003)

How the values were obtained:
[1] = anti-singlet-oxygen activity: deactivation of singlet oxygen, luminescence at 1270 nm, Stern-Volmer type analysis; format: physicochemical; conditions: for (kr + kq), sum of the rate constants for the chemical reaction and for the physical inhibition of singlet oxygen: singlet oxygen generated by irradiating Ru(bipy)3Cl at 437 nm in deuterated methanol, luminescence at 1270 nm
From the text: The anti-singlet-oxygen activity of the compound of Example 1 was compared with that of N-octanoyl-β-alanyl-L-histidine (referred to as compound A) of the prior art, according to the following principle, which is also described in Pure & Appl. Chem., vol. 62, No. 8, 1467-1476 (1990).
In all the experiments, singlet oxygen was generated by irradiating at 437 nm Ru(bipy)3Cl (tris(2,2′-bipyridyl)ruthenium chloride hexahydrate) dissolved in deuterated methanol.
The sum of the physical inhibition constants (kq) and chemical reaction constants (kr) of singlet oxygen with the test compounds was determined.
The results for the deactivation of singlet oxygen can be analysed by measuring the luminescence (infrared emission) of singlet oxygen at 1270 nm, and by monitoring the kinetics of disappearance of oxygen.
The exploitation of the results is based on the Stern-Volmer type analysis principle: the signal obtained is measured in the absence (So) and in the presence (S) of the test compound, at various concentrations in the solution. The ratio So/S makes it possible to determine the value of (kr+kq) according to the following relationship:
[P] denotes the concentration of test compound in the solution, φo denotes the quantic yield of the emission in the absence of compound, φ denotes the quantic yield of the emission in the presence of compound, τo denotes the lifetime of singlet oxygen in deuterated methanol (270 μs), kr+kq denotes the sum of the rate constants for the chemical reaction and for the physical inhibition of singlet oxygen.

| Structure (SMILES) | melting point | anti-singlet-oxygen activity compared with compound A of the prior art ([1]; comparison of (kr+kq) in deuterated methanol) | (kr + kq), sum of the rate constants for the chemical reaction and for the physical inhibition of singlet oxygen [1] |
| --- | --- | --- | --- |
| CCCCCCCCOC(=O)NCCC(=O)N[C@@H](Cc1c[nH]cn1)C(=O)O [Example 1, N-octyloxycarbonyl-β-alanyl-L-histidine] | 188 to 190 °C | significantly higher anti-singlet-oxygen activity | 8.8 × 10^6 ± 0.3 1.mol^−1.s^−1 |
| CCCCCCCC(=O)NCCC(=O)N[C@@H](Cc1c[nH]cn1)C(=O)O [Compound A, N-octanoyl-β-alanyl-L-histidine, reference compound] | – | – | 7.4 × 10^5 ± 0.4 1.mol^−1.s^−1 |
| CCCCCCCCCCCCOC(=O)NCCC(=O)N[C@@H](Cc1c[nH]cn1)C(=O)O [Example 2, N-dodecyloxycarbonyl-β-alanyl-L-histidine] | 168 to 172 °C | – | – |
